{"source": "patent US7705016B2", "about": "“Regulation of food intake by modulation of long-chain fatty acyl-CoA levels in the hypothalamus” (Albert Einstein College of Medicine of Yeshiva University, priority 2003, dated 2010)", "target": "T1, CPT1 (Rattus norvegicus, UniProt P32198)", "T1 construct": "CPT1 activity was measured in the particulate fraction of protein extracts from animals treated with ICV control injections; from tissue; host or cells: hypothalamus (arcuate nucleus) of male Sprague-Dawley rats, in vivo or ex vivo", "T1 sequence (P32198 2-773)": "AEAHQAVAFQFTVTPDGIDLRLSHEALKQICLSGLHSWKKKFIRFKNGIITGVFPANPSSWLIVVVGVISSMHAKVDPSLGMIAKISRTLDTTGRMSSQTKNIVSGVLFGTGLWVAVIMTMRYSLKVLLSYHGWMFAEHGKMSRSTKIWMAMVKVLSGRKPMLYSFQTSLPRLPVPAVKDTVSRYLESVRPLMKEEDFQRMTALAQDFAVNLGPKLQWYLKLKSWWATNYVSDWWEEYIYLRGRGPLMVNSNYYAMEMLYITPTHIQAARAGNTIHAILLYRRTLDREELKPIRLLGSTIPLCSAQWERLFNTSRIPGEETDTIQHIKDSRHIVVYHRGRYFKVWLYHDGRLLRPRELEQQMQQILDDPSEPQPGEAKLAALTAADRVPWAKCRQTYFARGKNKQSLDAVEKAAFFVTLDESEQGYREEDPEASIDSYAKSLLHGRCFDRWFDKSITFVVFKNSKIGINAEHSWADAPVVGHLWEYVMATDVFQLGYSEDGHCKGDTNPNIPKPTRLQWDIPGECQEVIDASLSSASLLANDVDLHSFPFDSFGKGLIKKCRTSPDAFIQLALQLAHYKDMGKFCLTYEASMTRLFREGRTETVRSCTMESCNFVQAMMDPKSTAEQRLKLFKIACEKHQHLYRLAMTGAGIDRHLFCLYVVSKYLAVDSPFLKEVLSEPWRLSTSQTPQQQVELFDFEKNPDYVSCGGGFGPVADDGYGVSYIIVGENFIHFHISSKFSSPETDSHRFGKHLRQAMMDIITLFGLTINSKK", "assay": "CPT1 activity in arcuate nuclei and whole hypothalamus after ICV injection", "format": "in vivo", "details": "after ICV administration", "protocol": "Surgical implantation of ICV cannulae was performed on day 1 (˜3 weeks prior to the in vivo study). Full recovery of body weight and food intake was achieved by day 7. Rats randomized for ribozyme treatment received an ICV injection of CPT1L-Ribo, CPT inhibitors or controls on day 17. The experimental group treated with TDGA received ICV injection of the inhibitor on day 21, 6 hr prior to the harvesting of brains. Panels B. and C. show quantitation of CPT1L (B) and CPT1M (C) mRNA by real-time PCR. RNA was purified from individual hypothalamic nuclei (PVN, LHA, and arcuate), which were obtained by micro punch technique 3 days after ICV injection of pTarget control (▪; N=4) or CPT1LRibo (□; N=5). Copy number of CPT1 mRNA is normalized to β-Actin copy number ×10^6. […] CPT1 activity was measured in the particulate fraction of protein extracts from animals treated with ICV control injections (▪; N=6, receiving aCSF+2% DMSO or Control Ribo), TDGA ( ?; N=6), or CPTL-Ribo (□; N=5). […] Levels of stearoyl-CoA (F) and oleyl-CoA (E) respectively were measured by HPLC in arcuate of rats injected ICV with control compound (▪; ST1340) or ST1326 (□).\nICV catheters were implanted in male Sprague-Dawley rats by stereotaxic surgery (Obici et al., 2002a; Obici et al., 2001; Liu et al., 1998). […] Thus, we next measured CPT1 activity in ARC and in whole hypothalamus. […]"}
{"substance": "CPT1L-Ribo: plasmid (pTarget, CMV promoter) expressing a hammerhead ribozyme that specifically cleaves rat CPT1L mRNA, complexed to PEI for ICV injection (DNA CUGUACCAAAGAGCUGUAGAGUCCGUGAGGACGAAACGCCGCUCACAAUG)", "values": [{"measurement": "CPT1 activity in ARC", "value": "marked decrease"}]}
